Assay results published in patent US20020102280A1, “Solvent systems for pharmaceutical agents” (priority 2000, published 2002).
Where two headings read alike, the source gives them in different places. Each block holds one compound with its values, some of them ahead of it.

Tests used:
[1] = cited from earlier work
physchem = assay: physchem
Description: Approximately 0.17 gm of Epikuron 200, 0.7 gm essential oil of sweet basil, 0.25 gm of water, and 0.25 gm of glycerol were mixed and the mixture centrifuged.
In this experiment, essential oils of ginger and sweet basil were combined to solubilize the bioactive compound ubiquinone (a coenzyme Q10) in a phospholipid-rich reversed liquid crystal.

[2] = free base form; cited from earlier work
[3] = water-solubilized hydrochloride form; cited from earlier work
[4] = oral, intramuscular and intraperitoneal routes; cited from earlier work
[5] = cited from earlier work; remark: listed apart in the source
[6] = Solubilizing paclitaxel in essential oils

solubilization in liquid crystal (reversed cubic phase) (physchem): solubilized
SMILES: CCCCN1CCCCC1C(=O)Nc1c(C)cccc1C (stereo not drawn) [bupivicaine]
KOW (octanol-water partition coefficient) [2]: approximately 1500

level solubilized in reversed cubic phase (physchem): about 2.4%
SMILES: N.[Cl][Pt][Cl].c1cscn1 [trans-[Pt(II)Cl2(NH3)(thiazole)]]

Paclitaxel solubility (w/w, approx) ([6]; in oil of bay): ~16%
Paclitaxel solubility (w/w, approx) ([6]; in palmarosa oil): >10%
Paclitaxel solubility (w/w, approx) ([6]; in peppermint oil): >5%
Paclitaxel solubility (w/w, approx) ([6]; in sweet basil oil): ~7%
Paclitaxel solubility (w/w, approx) ([6]; in thyme oil): ~10%
solubility (physchem; oil or lipid): ≥ 5000 µg/mL
SMILES: CC(=O)O[C@H]1C(=O)[C@@]2(C)[C@H]([C@H](OC(=O)c3ccccc3)[C@]3(O)C[C@H](OC(=O)[C@H](O)[C@@H](NC(=O)c4ccccc4)c4ccccc4)C(C)=C1C3(C)C)[C@]1(OC(C)=O)CO[C@@H]1C[C@@H]2O [Paclitaxel, paclitaxel]

Continued, compound first:

SMILES: O=C1CN(/N=C/c2ccc(-c3ccc([N+](=O)[O-])cc3)o2)C(O)=N1 [Dantrolene sodium, dantrolene sodium]
solubility in water [1]: ~300 µg/mL
solubilization in reversed cubic phase (physchem): free of dantrolene crystals
dissolution in reversed cubic liquid crystalline phase (physchem; Experiment 10: 3 mg in Epikuron 200/ascorbyl palmitate/gentisic acid/aminocaproic acid/ethanolamine/water + oil of ginger): dissolved

SMILES: CCCCN1CCCCC1C(=O)Nc1c(C)cccc1C.Cl (stereo not drawn) [bupivicaine hydrochloride]
therapeutic half life [3]: only a few hours

SMILES: C=CC(C)(O)CCC=C(C)C (stereo not drawn) [Linalool, linalool]
toxicity [4]: extremely low toxicity

SMILES: O=C1CN(/N=C/c2ccc(-c3ccc([N+](=O)[O-])cc3)o2)C(O)=N1 [Dantrolene, dantrolene]
solubility in water ([1]; listed as dantrolene): approximately 150 mg/L
solubility in simple phospholipid-water systems [5]: very low

SMILES: COC1=C(OC)C(=O)C(C/C=C(\C)CC/C=C(\C)CC/C=C(\C)CC/C=C(\C)CC/C=C(\C)CC/C=C(\C)CC/C=C(\C)CC/C=C(\C)CC/C=C(\C)CCC=C(C)C)=C(C)C1=O [Coenzyme Q10, ubiquinone]
solubilization in reversed bicontinuous cubic phase (physchem): solubilized
solubilization in reversed cubic phase (physchem): fully solubilized
